Assay results: ChEMBL document CHEMBL1201862, “PubChem BioAssay data set” (2004)
Where a name gives a salt, the structure may show the parent alone. Calls of active or inactive are those of the source.

Assays:
[1] = mouse fibroblast viability loss – cell-based, cherry-pick samples, set 2, cytotoxicity control for T. cruzi growth inhibitor project, dose response (AID 651817); format: functional; details: NIH3T3
[2] = target: Broad substrate specificity ATP-binding cassette transporter ABCG2 (Homo sapiens, UniProt Q9UNQ0); assay: blockers of JC-1 export by ABCG2 – Ig-MXP3 cells, flow cytometry, dose response (AID 1690); format: functional
Broad substrate specificity ATP-binding cassette transporter ABCG2, sequence (Q9UNQ0 whole entry): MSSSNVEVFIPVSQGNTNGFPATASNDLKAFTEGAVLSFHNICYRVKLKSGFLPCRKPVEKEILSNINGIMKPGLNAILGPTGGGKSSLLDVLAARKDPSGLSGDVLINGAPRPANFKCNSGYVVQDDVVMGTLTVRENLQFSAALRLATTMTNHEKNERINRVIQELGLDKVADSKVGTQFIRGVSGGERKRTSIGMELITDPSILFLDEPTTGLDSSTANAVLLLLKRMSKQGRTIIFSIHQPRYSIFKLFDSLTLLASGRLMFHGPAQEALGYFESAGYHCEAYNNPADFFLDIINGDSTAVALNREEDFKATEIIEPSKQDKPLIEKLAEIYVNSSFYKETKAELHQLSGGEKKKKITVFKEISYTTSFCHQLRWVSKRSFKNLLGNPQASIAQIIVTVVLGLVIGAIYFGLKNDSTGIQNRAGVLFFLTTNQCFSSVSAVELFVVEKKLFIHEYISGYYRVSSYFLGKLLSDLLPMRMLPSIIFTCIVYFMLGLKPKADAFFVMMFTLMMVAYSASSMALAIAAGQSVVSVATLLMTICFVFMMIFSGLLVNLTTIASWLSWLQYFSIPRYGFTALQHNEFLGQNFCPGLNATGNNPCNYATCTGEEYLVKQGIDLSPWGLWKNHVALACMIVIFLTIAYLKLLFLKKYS

[3] = target: T1, Sentrin-specific protease 8 (Homo sapiens, UniProt Q96LD8); format: functional
T1 sequence (Q96LD8 whole entry): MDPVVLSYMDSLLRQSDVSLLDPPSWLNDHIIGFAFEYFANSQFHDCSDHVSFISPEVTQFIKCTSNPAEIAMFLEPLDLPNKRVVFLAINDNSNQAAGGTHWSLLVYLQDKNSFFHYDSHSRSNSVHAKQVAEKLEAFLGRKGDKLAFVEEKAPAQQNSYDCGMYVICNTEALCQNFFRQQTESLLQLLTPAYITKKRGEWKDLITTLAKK

[4] = target: T2, Protein RecA (Mycobacterium tuberculosis, UniProt P9WHJ3); assay: Fluorescence Cell-Free Homogeneous Dose Retest to Identify Inhibitors of RecA-Intein Splicing Activity. [Related pubchem assays (depositor defined):AID2097, AID2223, AID489010, AID492950]; format: functional
T2 sequence (P9WHJ3 whole entry): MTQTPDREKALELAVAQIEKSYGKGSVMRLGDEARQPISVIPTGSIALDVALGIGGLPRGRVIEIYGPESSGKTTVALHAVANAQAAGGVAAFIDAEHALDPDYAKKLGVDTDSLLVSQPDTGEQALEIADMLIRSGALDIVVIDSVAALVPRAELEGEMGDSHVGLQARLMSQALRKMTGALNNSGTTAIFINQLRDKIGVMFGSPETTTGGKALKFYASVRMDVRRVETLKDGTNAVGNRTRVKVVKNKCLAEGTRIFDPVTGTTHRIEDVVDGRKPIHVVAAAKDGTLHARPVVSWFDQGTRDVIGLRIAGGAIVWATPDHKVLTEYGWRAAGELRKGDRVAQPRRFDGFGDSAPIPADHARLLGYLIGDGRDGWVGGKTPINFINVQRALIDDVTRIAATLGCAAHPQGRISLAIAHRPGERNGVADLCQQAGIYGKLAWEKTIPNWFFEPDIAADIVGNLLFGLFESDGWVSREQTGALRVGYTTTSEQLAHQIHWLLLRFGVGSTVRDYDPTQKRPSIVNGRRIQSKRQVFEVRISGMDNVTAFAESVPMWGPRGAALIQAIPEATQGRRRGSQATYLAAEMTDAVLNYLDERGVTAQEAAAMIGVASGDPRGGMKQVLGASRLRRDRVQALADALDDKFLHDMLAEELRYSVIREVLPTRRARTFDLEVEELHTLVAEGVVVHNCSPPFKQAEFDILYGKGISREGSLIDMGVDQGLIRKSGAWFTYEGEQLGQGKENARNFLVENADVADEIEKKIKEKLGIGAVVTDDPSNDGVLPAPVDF

[5] = target: T1, Sentrin-specific protease 8; format: functional; remark: listed apart in the source
[6] = target: T3, Replicative DNA helicase DnaB (Mycobacterium tuberculosis, UniProt P9WMR3); assay: DnaB intein splicing inhibitors, dose response, biochemical, cell-free fluorescence (AID 449749); format: functional
T3 sequence (P9WMR3 whole entry): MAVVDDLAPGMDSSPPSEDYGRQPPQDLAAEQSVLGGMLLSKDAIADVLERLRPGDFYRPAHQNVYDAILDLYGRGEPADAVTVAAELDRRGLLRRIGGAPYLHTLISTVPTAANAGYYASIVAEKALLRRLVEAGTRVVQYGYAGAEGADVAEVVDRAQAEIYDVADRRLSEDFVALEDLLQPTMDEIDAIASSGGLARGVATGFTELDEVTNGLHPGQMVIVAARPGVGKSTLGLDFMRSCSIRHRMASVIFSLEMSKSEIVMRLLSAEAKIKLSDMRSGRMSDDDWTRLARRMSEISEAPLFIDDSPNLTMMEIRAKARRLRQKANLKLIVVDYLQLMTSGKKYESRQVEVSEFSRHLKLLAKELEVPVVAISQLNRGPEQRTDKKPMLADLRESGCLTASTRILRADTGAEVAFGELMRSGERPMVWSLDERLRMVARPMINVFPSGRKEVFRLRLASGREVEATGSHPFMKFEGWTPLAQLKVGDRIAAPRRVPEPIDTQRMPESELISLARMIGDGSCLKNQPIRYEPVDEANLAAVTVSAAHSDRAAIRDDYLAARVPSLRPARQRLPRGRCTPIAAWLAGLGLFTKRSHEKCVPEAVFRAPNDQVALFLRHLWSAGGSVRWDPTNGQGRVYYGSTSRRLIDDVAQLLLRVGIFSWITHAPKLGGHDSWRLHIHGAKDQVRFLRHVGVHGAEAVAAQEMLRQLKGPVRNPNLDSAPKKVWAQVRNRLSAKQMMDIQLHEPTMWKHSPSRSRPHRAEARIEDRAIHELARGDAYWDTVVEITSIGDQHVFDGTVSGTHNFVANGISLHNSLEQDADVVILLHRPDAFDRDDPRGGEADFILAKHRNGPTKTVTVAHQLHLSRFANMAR

[7] = test system: Vero; assay: viability loss in Vero cells – cell-based, plate reader, cherry-pick samples, cytotoxicity control, dose response (AID 687020); format: functional; details: Chlorocebus sabaeus
[8] = target: Arf-GAP with SH3 domain, ANK repeat and PH domain-containing protein 1 (Homo sapiens, UniProt Q9ULH1); format: functional;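 further: biochemical fluorescence polarization dose–response screen measuring inhibition of ASAP1; ASAP1 GAP domain stimulating GTP hydrolysis by truncated human ARF1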
Arf-GAP with SH3 domain, ANK repeat and PH domain-containing protein 1, sequence (Q9ULH1 whole entry, the tested form may be a part): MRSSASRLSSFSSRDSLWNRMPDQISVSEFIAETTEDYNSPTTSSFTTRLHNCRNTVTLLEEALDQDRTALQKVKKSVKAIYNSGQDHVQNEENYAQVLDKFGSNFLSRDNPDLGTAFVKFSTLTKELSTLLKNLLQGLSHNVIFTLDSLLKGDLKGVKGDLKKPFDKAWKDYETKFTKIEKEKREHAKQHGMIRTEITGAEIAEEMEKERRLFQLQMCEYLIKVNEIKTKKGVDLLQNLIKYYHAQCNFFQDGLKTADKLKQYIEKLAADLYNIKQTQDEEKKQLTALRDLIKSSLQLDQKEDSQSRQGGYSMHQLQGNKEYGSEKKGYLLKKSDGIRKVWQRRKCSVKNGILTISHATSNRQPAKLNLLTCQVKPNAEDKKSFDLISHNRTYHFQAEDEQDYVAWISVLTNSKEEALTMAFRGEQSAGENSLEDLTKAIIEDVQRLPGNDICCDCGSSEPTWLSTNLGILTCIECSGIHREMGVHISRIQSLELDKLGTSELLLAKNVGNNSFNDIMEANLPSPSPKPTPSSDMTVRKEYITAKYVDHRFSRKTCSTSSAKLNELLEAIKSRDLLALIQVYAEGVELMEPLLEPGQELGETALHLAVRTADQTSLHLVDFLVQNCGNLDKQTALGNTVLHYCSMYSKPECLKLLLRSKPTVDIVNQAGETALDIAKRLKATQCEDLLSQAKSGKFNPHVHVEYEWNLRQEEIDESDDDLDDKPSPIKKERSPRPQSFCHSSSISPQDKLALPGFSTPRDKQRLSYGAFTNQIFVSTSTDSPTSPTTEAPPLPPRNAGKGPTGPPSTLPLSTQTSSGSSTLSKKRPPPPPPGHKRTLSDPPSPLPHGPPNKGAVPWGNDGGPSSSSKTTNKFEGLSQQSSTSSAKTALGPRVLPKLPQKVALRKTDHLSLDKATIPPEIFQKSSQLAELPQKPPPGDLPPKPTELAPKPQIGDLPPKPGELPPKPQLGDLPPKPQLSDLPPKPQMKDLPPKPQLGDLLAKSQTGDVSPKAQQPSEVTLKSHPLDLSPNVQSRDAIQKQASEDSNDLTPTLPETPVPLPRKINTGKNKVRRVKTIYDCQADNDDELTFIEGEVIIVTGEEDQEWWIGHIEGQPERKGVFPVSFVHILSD

[9] = target: T4, Tyrosine-protein phosphatase non-receptor type 5 (Homo sapiens, UniProt P54829); assay: PTPN5 enzyme inhibition – biochemical, fluorescence intensity, uHTS hits, confirmation (AID 602372); format: functional; details: read-out: IC50_Mean
T4 sequence (P54829 whole entry): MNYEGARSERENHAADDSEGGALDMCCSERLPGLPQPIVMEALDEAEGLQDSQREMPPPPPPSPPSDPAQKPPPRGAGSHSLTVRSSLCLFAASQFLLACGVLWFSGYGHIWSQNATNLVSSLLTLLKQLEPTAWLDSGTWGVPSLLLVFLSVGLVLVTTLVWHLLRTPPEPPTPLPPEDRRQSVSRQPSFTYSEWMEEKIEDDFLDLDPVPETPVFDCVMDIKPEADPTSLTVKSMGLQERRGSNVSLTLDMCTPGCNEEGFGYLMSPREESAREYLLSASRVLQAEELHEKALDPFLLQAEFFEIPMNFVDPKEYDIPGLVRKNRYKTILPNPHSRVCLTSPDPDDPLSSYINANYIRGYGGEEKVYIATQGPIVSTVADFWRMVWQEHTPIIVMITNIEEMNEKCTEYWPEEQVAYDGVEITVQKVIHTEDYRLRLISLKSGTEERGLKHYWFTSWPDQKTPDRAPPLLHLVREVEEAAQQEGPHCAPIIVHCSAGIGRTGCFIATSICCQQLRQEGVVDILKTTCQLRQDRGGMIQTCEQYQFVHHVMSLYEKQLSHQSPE

[10] = target: T5, Tyrosine-protein phosphatase non-receptor type 11 (Homo sapiens, UniProt Q06124); assay: PTPN11 enzyme inhibitors – biochemical, selectivity assay for STEP inhibitor project, dose response (AID 602367); format: functional; details: read-out: IC50_Mean
T5 sequence (Q06124 whole entry): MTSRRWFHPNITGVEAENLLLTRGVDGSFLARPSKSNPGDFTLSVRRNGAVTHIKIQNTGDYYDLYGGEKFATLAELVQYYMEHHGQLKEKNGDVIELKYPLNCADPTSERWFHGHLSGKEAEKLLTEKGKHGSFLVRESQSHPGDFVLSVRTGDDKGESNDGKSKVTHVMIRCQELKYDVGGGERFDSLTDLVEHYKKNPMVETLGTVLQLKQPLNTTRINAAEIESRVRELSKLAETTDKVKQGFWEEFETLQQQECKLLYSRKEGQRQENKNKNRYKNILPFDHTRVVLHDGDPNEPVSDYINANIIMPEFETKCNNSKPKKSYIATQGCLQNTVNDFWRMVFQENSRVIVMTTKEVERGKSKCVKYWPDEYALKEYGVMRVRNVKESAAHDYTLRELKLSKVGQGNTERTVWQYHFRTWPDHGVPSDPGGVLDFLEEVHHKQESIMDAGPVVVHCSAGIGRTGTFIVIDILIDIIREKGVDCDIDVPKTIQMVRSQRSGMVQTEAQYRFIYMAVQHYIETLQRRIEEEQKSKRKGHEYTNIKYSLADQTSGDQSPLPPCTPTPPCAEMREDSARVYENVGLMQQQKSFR

[11] = target: Dual specificity protein phosphatase 3 (Homo sapiens, UniProt P51452); assay: VHR phosphatase inhibition, dose response, selectivity assay for STEP inhibitor project, biochemical (AID 602374); format: functional; details: read-out: IC50_Mean
Dual specificity protein phosphatase 3, sequence (P51452 whole entry): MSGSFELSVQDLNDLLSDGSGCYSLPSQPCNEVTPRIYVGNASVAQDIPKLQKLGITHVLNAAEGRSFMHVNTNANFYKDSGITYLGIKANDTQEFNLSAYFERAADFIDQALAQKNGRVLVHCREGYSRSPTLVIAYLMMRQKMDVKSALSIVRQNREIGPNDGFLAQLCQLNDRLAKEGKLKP

[12] = target: Mu-type opioid receptor (Homo sapiens, UniProt P35372); format: functional, cell-based;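 further: U2OS cells with beta-arrestin recruitment to OPRM1 by beta-gal complementation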
Mu-type opioid receptor, sequence (P35372 whole entry): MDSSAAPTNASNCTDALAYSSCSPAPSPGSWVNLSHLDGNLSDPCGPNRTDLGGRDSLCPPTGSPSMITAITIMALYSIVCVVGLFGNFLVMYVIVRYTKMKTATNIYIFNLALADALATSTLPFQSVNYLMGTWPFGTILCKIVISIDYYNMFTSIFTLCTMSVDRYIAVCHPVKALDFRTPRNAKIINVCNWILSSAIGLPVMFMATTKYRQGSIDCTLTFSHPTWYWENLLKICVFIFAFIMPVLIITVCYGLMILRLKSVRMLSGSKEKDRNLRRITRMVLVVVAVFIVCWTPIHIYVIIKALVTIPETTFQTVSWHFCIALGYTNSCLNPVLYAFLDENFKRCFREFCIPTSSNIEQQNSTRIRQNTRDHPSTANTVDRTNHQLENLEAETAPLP

[13] = target: 5-hydroxytryptamine receptor 2A (Mus musculus, UniProt P35363); format: functional, cell-based;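 further: CHO-K1 cells with tagged receptor and beta-arrestin; agonist potency measured as compound-induced activation of the receptor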
5-hydroxytryptamine receptor 2A, sequence (P35363 whole entry): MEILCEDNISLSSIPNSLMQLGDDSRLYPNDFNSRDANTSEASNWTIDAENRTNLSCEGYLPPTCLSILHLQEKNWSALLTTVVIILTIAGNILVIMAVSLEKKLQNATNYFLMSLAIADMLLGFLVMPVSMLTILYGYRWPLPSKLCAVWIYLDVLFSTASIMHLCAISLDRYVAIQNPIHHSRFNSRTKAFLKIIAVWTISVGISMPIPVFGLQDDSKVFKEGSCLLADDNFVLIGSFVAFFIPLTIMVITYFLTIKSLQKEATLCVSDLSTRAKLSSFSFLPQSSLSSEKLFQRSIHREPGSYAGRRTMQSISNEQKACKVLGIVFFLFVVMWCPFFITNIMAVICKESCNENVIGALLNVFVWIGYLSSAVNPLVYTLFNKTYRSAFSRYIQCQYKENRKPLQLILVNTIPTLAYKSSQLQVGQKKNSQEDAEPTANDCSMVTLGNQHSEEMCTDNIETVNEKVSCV

[14] = target: T6, Beta-2 adrenergic receptor (Homo sapiens, UniProt P07550); assay: ADRB2 activation measured by internalization – cell-based, FAP fluorogen, flow cytometry, cherry pick 1, dose response (AID 588763); format: functional
T6 sequence (P07550 whole entry, the tested form may be a part): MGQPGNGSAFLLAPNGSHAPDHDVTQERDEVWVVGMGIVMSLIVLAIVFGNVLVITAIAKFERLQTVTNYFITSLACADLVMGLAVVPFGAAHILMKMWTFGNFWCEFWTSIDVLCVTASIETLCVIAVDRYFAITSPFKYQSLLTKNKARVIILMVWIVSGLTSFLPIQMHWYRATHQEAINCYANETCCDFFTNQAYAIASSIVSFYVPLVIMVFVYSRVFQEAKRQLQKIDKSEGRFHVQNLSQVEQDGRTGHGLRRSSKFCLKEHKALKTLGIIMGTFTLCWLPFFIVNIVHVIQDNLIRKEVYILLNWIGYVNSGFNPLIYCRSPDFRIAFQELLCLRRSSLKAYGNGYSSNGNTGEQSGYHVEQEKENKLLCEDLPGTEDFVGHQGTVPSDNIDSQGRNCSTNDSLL

[15] = target: T7, Carboxy-terminal domain RNA polymerase II polypeptide A small phosphatase 1 (Homo sapiens, UniProt Q9GZU7); assay: CTDSP1 inhibitors, concentration-response, biochemical, absorbance readout, ultra-high-throughput screen actives (AID 540297); format: functional
T7 sequence (Q9GZU7 whole entry): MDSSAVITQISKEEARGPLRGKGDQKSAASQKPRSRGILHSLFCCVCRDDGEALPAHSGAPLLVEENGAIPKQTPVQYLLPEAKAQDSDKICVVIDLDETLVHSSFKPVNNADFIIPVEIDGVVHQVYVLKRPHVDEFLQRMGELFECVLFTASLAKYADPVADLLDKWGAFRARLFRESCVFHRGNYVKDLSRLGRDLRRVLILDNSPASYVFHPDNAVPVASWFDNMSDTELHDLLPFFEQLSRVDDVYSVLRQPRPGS

[16] = target: T6, Beta-2 adrenergic receptor; assay: Dose response for HTS for Beta-2AR agonists via FAP method from Powderset1.; format: functional
[17] = target: T8, Beta-lactamase (Pseudomonas aeruginosa, UniProt Q79MP6); assay: inhibition of IMP-1 beta-lactamase activity – biochemical, epi-absorbance, selectivity assay for VIM-2 inhibitor project, dose response (AID 1920)
T8 sequence (Q79MP6 whole entry): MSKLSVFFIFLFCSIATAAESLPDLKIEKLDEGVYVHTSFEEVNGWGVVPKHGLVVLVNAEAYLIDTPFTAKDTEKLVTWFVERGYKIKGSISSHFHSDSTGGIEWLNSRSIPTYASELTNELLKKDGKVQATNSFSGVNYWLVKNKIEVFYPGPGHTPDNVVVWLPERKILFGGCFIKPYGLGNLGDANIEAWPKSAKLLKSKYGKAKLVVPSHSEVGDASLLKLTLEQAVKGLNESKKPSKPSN

[18] = target: T9, Beta Lactamase (Pseudomonas aeruginosa, UniProt Q932Y6); assay: VIM-2 CCF2 hydrolysis inhibition, assay artifact filter – biochemical, FRET readout, CCF2 substrate, artefact control for selective VIM-2 inhibitor project, dose response (AID 1926)
T9 sequence (Q932Y6 whole entry): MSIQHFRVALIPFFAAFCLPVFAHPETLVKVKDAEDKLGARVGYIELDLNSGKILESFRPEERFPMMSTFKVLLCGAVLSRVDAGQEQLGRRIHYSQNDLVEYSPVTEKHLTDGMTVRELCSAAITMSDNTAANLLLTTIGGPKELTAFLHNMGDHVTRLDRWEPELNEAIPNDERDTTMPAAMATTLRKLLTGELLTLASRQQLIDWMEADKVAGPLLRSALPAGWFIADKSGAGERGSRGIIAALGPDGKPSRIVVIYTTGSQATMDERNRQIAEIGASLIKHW

[19] = target: Beta-lactamase (Salmonella choleraesuis (strain SC-B67), UniProt Q5J463); assay: Epi-absorbance-based counterscreen for selective VIM-2 inhibitors: dose response biochemical high throughput screening assay to identify inhibitors of TEM-1 serine-beta-lactamase.
Beta-lactamase (Salmonella choleraesuis (strain SC-B67), UniProt Q5J463), sequence (Q5J463 whole entry): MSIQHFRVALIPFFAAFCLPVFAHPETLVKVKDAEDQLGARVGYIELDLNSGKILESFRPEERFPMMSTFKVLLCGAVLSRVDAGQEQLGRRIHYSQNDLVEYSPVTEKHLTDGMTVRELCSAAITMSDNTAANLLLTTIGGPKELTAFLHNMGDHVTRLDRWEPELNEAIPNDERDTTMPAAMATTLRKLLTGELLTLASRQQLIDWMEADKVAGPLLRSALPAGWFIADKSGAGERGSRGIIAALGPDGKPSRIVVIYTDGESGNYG

[20] = target: T9, Beta Lactamase; assay: concentration-dependent VIM-2 enzyme inhibition – biochemical, epi-absorbance readout, selective inhibitors, dose response (AID 1919)
[21] = target: T8, Beta-lactamase; assay: […] counterscreen for selective VIM-2 inhibitors: dose response biochemical high throughput screening assay to identify inhibitors of IMP-1 metallo-beta-lactamase.
[22] = target: T10, Tyrosine-protein phosphatase non-receptor type 22 (Homo sapiens, UniProt Q9Y2R2); assay: lymphoid phosphatase LYP inhibitors – biochemical, selectivity assay for STEP inhibitor project, dose response (AID 624241); format: functional
T10 sequence (Q9Y2R2 whole entry): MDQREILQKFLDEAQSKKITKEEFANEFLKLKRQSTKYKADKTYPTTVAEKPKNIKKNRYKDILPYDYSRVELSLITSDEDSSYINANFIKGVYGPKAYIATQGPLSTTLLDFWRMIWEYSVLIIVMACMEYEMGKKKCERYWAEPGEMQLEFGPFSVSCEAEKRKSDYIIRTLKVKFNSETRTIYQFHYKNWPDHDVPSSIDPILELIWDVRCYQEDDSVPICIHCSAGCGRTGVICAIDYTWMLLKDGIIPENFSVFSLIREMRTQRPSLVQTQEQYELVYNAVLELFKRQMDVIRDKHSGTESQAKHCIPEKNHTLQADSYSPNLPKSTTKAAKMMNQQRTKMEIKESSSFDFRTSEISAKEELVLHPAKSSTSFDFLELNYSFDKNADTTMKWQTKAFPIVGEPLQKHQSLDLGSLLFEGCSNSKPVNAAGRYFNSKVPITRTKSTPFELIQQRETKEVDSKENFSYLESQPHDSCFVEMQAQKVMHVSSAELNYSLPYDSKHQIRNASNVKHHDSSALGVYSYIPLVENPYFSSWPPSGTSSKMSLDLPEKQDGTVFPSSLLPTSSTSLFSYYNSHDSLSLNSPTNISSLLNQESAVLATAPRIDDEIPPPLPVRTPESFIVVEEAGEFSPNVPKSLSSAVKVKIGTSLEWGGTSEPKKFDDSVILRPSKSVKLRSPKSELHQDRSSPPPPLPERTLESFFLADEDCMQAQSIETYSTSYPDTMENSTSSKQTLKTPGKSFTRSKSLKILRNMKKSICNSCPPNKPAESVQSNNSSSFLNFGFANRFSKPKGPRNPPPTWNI

C[C@H](CO)N1C[C@H](C)[C@H](CN(C)Cc2ccc(Cl)c(Cl)c2)Oc2c(NC(=O)Nc3ccc(C(F)(F)F)cc3)cccc2C1=O
AC50 [1]: 12.9 µM (active)

COc1ccc2cc(C(=O)OC(C)C)sc(=O)c2c1OC
EC50 [2]: 24.4 µM (inactive)

Cc1cc(=O)n(-c2ccc(O)cc2)[nH]1
IC50 [3]: 19.1 µM (active) | EC50 [4]: 0.774 µM (active) | IC50 [5]: 17.2 µM (active) | AC50 [6]: 2.3 µM (active)

N#Cc1ccc(CN2CCN(C(=O)CC(NC(=O)c3ccccc3)c3ccccc3)CC2)cc1 (stereo unspecified)
AC50 [7]: 38.1 µM (active)

Cc1nnc2sc(-c3ccc(NC(=O)c4ccc(-c5ccc(Cl)cc5Cl)o4)cc3)nn12
IC50 [8]: 2.48 µM (active) | IC50 [9]: > 80 µM (inactive) | IC50 [10]: 0.409 µM (active) | IC50 [11]: 0.716 µM (active)

CCCN1CCC[C@@H](c2cccc(O)c2)C1 [PRECLAMOL HYDROCHLORIDE]
EC50 [12]: 92.4 µM (inactive) | EC50 [13]: 76 µM (inactive)

Cc1ccc(SCC(=O)Nc2ccc(-c3nnc(-c4ccco4)o3)cc2)cc1
EC50 [14]: 0.629 µM (active) | IC50 [15]: 9.04 µM (active) | EC50 [16]: 0.713 µM (active)

O=C(O)COc1ccccc1/C=N/n1c(S)nnc1C1CCCCC1
IC50 [17]: > 59.6 µM (inactive) | IC50 [18]: 8.62 µM (active) | IC50 [19]: > 59.6 µM (inactive) | IC50 [20]: 23.1 µM (inactive) | IC50 [21]: > 59.6 µM (inactive)

COc1ccc2cc3c(N)nn(C(=O)c4cccc(F)c4)c3nc2c1
IC50 [9]: 16.9 µM (active) | IC50 [15]: 8.49 µM (active) | IC50 [22]: 60.2 µM (inactive) | IC50 [10]: 5.27 µM (active) | IC50 [11]: 4.31 µM (active)
